The values that follow come from PubChem BioAssay AID463206 (Broad Institute, 2010).

Calls of active or inactive are those of the source.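 Rule for the calls: active = caspase luminescence falls with dose and the half-maximal concentration AC50 from the fitted curve is at or below a set limit; inconclusive = flat fit at 30 to 70% signal loss, or invalid fit; inactive = AC50 above the limit, or signal rises instead.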 Some results are limits rather than exact numbers.

As usually defined, the AC50 is the midpoint of the concentration-response curve, whichever way the signal moves.

This assay concerns INS-1E cytokine-induced caspase-3/7, Caspase-Glo luminescence, 48 h. In words: suppression of cytokine-driven beta-cell apoptosis – INS-1E rat cells, luminescence, orthogonal assay for beta-cell apoptosis protection project, dose response (AID 463206).
For the molecule `Cc1c(C(C)C)c(=O)n(-c2ccc(S(=O)(=O)NCc3ccccc3)cc2)n1C`, the AC50 was > 26 µM (inactive).

As for `NC(N)=NC(N)=Nc1ccc(SC(F)(F)F)cc1`, the AC50 was > 26 µM (inactive).

In the case of `O=[N+]([O-])c1ccc(NC(=S)NCCc2ccc(F)cc2)cc1`, the AC50 was > 26 µM (inactive).

In the case of `CC1=NNC(=O)/C1=C\c1cn(-c2ccccc2)nc1-c1ccc(Cl)cc1`, the AC50 is > 26 µM (inactive).

Turning to `COc1nc(Nc2nc3ccccc3c(=O)[nH]2)nc2ccc(C)cc12`, the AC50 was > 26 µM (inactive).

Regarding `CCCC1CCC(c2ccc(C(=O)NN)cc2)CC1` (stereo unspecified), the AC50 was > 12 µM (inactive).

`O=C(N/N=C(\c1ccccc1)c1ccccn1)c1ccccc1Cl`: the AC50 was > 26 µM (inactive).

Turning to `Cc1cc(C)nc(N/N=C2/CCCC/C2=C\c2ccccc2)n1`, the AC50 was > 26 µM (inactive).

For `COc1cc(-c2nc3ccc(C)cn3c2NCc2ccccc2)ccc1-c1cccc(Cl)c1`, the AC50 was > 26 µM (inactive).

As for `Cc1cc(C(=O)NC2CCCc3c2cnn3-c2ccc(C)c(C)c2)n(C)n1` (stereo unspecified), the AC50 was > 26 µM (inactive).

For the molecule `C/C(=N\NC(=O)Cc1ccc(Cl)cc1)c1ccccn1`, the AC50 is > 26 µM (inactive).

For `NC(=O)c1ccc(N2CCN(S(=O)(=O)c3cccs3)CC2)c([N+](=O)[O-])c1`, the AC50 was > 26 µM (inactive).

`CN(C)CCCNc1c2ccccc2nc2ccccc12`: the AC50 is > 26 µM (inactive).

For the molecule `Cc1ccc2cc(C3C(C#N)=C(N)Oc4c3ccc3cccnc43)c(=O)[nH]c2c1` (stereo unspecified), the AC50 was > 26 µM (inactive).

Regarding `C=C(C)C(=O)N1CC2(CC(c3cccc(NC(=O)COc4ccc(Cl)cc4)c3)=NO2)C[C@@H]1C(N)=O` (stereo partly specified), the AC50 was > 26 µM (inactive).

With `COc1ccc(-n2c(=S)[nH]c3cc(C(=O)Nc4ccccc4OC)ccc3c2=O)cc1`, the AC50 is > 26 µM (inactive).

Regarding `Oc1ccc(N=Nc2ccc3c(c2)OCCO3)c2ncccc12`, the AC50 was > 26 µM (inactive).

For `O=C(N/N=C/c1ccccc1O)/C(=C/c1ccccc1)CCO`, the AC50 is > 26 µM (inactive).

As to `CCOC(=O)c1sc(NC(=O)Nc2cccc(Cl)c2)cc1C`, the AC50 was > 26 µM (inactive).

Regarding `CCSCCc1nnc(NC(=O)Nc2cccc(C(F)(F)F)c2)s1`, the AC50 was > 26 µM (inactive).

Regarding `CCN(CC)C(=O)C1CCCN(C(=S)Nc2cccc3ccccc23)C1` (stereo unspecified), the AC50 is > 26 µM (inactive).

Regarding `O=C(CCCN1C(=O)/C(=C/c2ccccc2)SC1=S)NCCCn1ccnc1`, the AC50 was > 26 µM (inactive).

Regarding `Cc1cc(C(=O)N/N=C/c2cc(Br)ccc2OC(=O)c2ccccc2)n[nH]1`, the AC50 is > 26 µM (inactive).

Turning to `CCC(CO)Oc1cc(NCc2ccc(C)c(C)c2)c2ncn(C(C)C)c2c1` (stereo unspecified), the AC50 is > 26 µM (inactive).

On to `CC(C)=CCc1cc2c(=O)c3c(O)c4c(cc3oc2c(O)c1O)OC(C)C4(C)C` (stereo unspecified), for which the AC50 is > 26 µM (inactive).

As for `Oc1cccc(/C=N/Nc2ccc(Cl)nn2)c1O`, the AC50 was > 26 µM (inactive).

`O=C(NN=C(c1ccccc1)c1ccccn1)c1ccccc1`: the AC50 is > 26 µM (inactive).

As for `CCOc1ccc(-c2cc(C(=O)NCCCn3ccnc3)c3cc(Br)ccc3n2)cc1`, the AC50 is > 12 µM (inactive).

Consider `Brc1ccc(-[n+]2c(-c3ccccc3)cc(-c3ccccc3)cc2-c2ccccc2)cc1`, for which the AC50 is > 26 µM (inactive).

Turning to `C=CCN(CC=C)CC(O)Cn1c2ccccc2c2ccccc21` (stereo unspecified), the AC50 was > 26 µM (inactive).

With `O=C(C#Cc1ccccc1)c1ccco1`, the AC50 was > 26 µM (inactive).

Turning to `CCOCCCNC(=O)c1c[nH]c2cc(OC)ccc2c1=O`, the AC50 is > 26 µM (inactive).

Regarding `COc1ccc(C(CCNCc2ccc(OC(C)C)cc2)c2ccccc2OC)cc1` (stereo unspecified), the AC50 is > 26 µM (inactive).

Turning to `CCn1cc(/C=C/c2cc[n+](C)cc2)c2ccccc21`, the AC50 was > 26 µM (inactive).

For the molecule `CCCCCCCCn1c(=O)c(C(=O)OC)c(N)c2ccccc21`, the AC50 was > 26 µM (inactive).

Regarding `COc1ccc2cc3[n+](cc2c1OC)CCc1cc2c(cc1-3)OCO2`, the AC50 was > 26 µM (inactive).

As to `CCC(=O)NC(c1ccc(Cl)cc1Cl)c1ccc2cccnc2c1O` (stereo unspecified), the AC50 is > 12 µM (inactive).

With `CCCOC(=O)c1ccc(-[n+]2c(-c3ccccc3)cc(-c3ccccc3)cc2-c2ccccc2)cc1`, the AC50 was > 26 µM (inactive).

Turning to `COc1ccccc1OCCCCOc1ccccc1C(C)=O`, the AC50 was > 26 µM (inactive).

As for `Cc1ccc2c(c1)N(C(=O)CCC(=O)NCCCN1CCC(Cc3ccccc3)CC1)CCO2`, the AC50 was 10.8 µM.

For `CCOc1ccccc1NC(=O)C(=O)N/N=C/c1cc(Br)ccc1O`, the AC50 is > 26 µM (inactive).

As to `COc1cnc(-c2ccccn2)nc1Oc1ccc(C(C)(C)C)cc1`, the AC50 was > 26 µM (inactive).

For `c1ccc(CCNc2ncnc3ccccc23)cc1`, the AC50 was > 26 µM (inactive).

Turning to `Cc1[nH]c2ccccc2c1CN1CCN(c2ccccn2)CC1`, the AC50 is > 26 µM (inactive).

As for `O=S(=O)(c1ccc(Cl)cc1)N1CCN(c2ncnc3sccc23)CC1`, the AC50 was > 26 µM (inactive).

For `C=C(C)C(=O)OCC(O)COc1ccc(C(C)(C)c2ccc(OCC(O)COC(=O)C(=C)C)cc2)cc1` (stereo unspecified), the AC50 is > 26 µM (inactive).

In the case of `CCOc1ccc(C(Nc2cccnc2)c2cc(Cl)c3cccnc3c2O)cc1` (stereo unspecified), the AC50 was > 26 µM (inactive).

`O=C1N/C(=N/N=C/c2ccccc2O)SC1Cc1ccc(F)cc1` (stereo unspecified): the AC50 is > 26 µM (inactive).

Take `C[n+]1c2n(c3ccccc31)N=C(c1cc(C(C)(C)C)c(O)c(C(C)(C)C)c1)CS2`: the AC50 is > 26 µM (inactive).

Take `O=C(NCC#CCSc1nnc(-c2cccc3ccccc23)o1)c1cccs1`: the AC50 is > 26 µM (inactive).

With `CC(C)COCc1ccc(O)c2ncccc12`, the AC50 is > 26 µM (inactive).

For the molecule `Oc1ccc(Nc2nc(-c3ccc4ccccc4c3)cs2)cc1`, the AC50 is > 26 µM (inactive).

With `CCC(/C=C1\Sc2ccc(OC)cc2N1CC)=C\c1sc2ccc(OC)cc2[n+]1CCCS(=O)(=O)[O-]`, the AC50 was > 26 µM (inactive).

For the molecule `COc1ccc(-c2cn(-c3ccc(OC)cc3)c3[n+]2-c2ccccc2CC3)cc1`, the AC50 is > 26 µM (inactive).

With `COc1ccccc1/C=C1\SC(=O)N(CCC(=O)NCCCn2ccnc2)C1=O`, the AC50 is > 26 µM (inactive).

As for `Cc1ccc2nc(NNC(=O)c3ccc(S(=O)(=O)N4CCc5ccccc5C4)cc3)sc2c1`, the AC50 is > 26 µM (inactive).

In the case of `CCOC(=O)N1CCN(S(=O)(=O)c2ccc(C(=O)NNc3nc4ccc(Cl)cc4s3)cc2)CC1`, the AC50 was > 26 µM (inactive).

With `CCN(CC)CCOc1ccc2c(c1)C(=NO)c1cc(OCCN(CC)CC)ccc1-2`, the AC50 is 6.61 µM.

Consider `O=C(NNc1c(Cl)cc(Cl)cc1Cl)c1cccc([N+](=O)[O-])c1`, for which the AC50 was > 26 µM (inactive).

`Cc1cc(N/N=C/c2ccc(O)cc2O)nc(-n2nc(C)cc2C)n1`: the AC50 was > 26 µM (inactive).

Regarding `CCN(CC)c1ccc(N=Cc2ccc([N+](=O)[O-])o2)cc1`, the AC50 is > 26 µM (inactive).

For the molecule `Oc1[nH]c2ccccc2c1N=NC(=S)N1CCOCC1`, the AC50 was > 26 µM (inactive).

On to `CN1/C(=C\C=C2/SC(=S)NC2=O)C(C)(C)c2ccccc21`, for which the AC50 was > 26 µM (inactive).

For the molecule `CCCNC(=O)c1ccc2c(=O)c(O)c(-c3ccc(Cl)c([N+](=O)[O-])c3)[nH]c2c1`, the AC50 was 3.22 µM.

`Cc1ccc(C#CC[N+]2(CC#Cc3ccc(C)cc3)CCCCC2)cc1`: the AC50 was > 26 µM (inactive).

Take `C/C(=N\NC(=O)C(C)n1nc(C)c([N+](=O)[O-])c1C)c1ccccc1O` (stereo unspecified): the AC50 was > 26 µM (inactive).

In the case of `CC(Oc1ccc(Br)cc1)c1nc2c3ccccc3nc(=S)n2[nH]1` (stereo unspecified), the AC50 is > 26 µM (inactive).

With `COC(=O)C1=C(C)N(Cc2ccccc2)C(=NCc2cccc(C(F)(F)F)c2)N[C@H]1c1cccc(C(F)(F)F)c1`, the AC50 was > 26 µM (inactive).

Take `O=C(N/N=C/c1cccc(F)c1)c1c(O)c2ccccc2[nH]c1=O`: the AC50 is > 26 µM (inactive).

On to `O=S1(=O)CCN(Cc2csc(-c3cccs3)n2)CC1`, for which the AC50 was > 26 µM (inactive).

With `CN(C)c1cc[n+](Cc2c(Cl)cccc2Cl)cc1`, the AC50 is > 26 µM (inactive).

In the case of `CSc1nc(-c2ccccc2)nc(C(Cl)Cl)n1`, the AC50 was 2.7 µM.

With `C[C@H]1CCC/C=C/C2C[C@H](O)CC2[C@H](O)/C=C/C(=O)O1` (stereo partly specified), the AC50 is > 26 µM (inactive).

With `C/C(=N/NC(=O)c1cccs1)c1c(C)[nH]n(-c2nc3ccccc3s2)c1=O`, the AC50 is > 26 µM (inactive).

For the molecule `CCCCCCCCCCOC(=O)Cn1c(COc2cccc(C)c2)[n+](C)c2ccccc21`, the AC50 was > 26 µM (inactive).

Regarding `O=C(OCn1ncc(Cl)c(Cl)c1=O)c1ccccc1Cl`, the AC50 was > 26 µM (inactive).

In the case of `N=c1c2c(n(Cc3ccc(Br)cc3)c3c1CCC3)CCCC2`, the AC50 is > 26 µM (inactive).

On to `Cn1c(=O)[nH]c(=O)c2c1nc([N+](=O)[O-])n2Cc1ccccc1`, for which the AC50 is > 26 µM (inactive).

With `CC1CCC(C(C)C)C(OC(=O)Cn2c(-c3ccccc3)[n+](C)c3ccccc32)C1` (stereo unspecified), the AC50 is > 26 µM (inactive).

On to `Oc1[nH]c2ccc(Br)cc2c1N=NC(=S)N1CCOCC1`, for which the AC50 is > 26 µM (inactive).

As for `COc1ccc(CCNc2cc(N3CCN(C(=O)c4ccccc4OC)CC3)ccc2[N+](=O)[O-])cc1OC`, the AC50 is > 26 µM (inactive).

Consider `Cc1ccccc1OCc1n(CC(=O)OC2CC(C)CCC2C(C)C)c2ccccc2[n+]1C` (stereo unspecified), for which the AC50 is > 26 µM (inactive).

Consider `COc1cccc(/C=N/NC(=O)c2cc(-c3ccccn3)nc3ccccc23)c1O`, for which the AC50 was > 26 µM (inactive).

For `CN(C)C(=O)c1ccc(NC(=O)c2cccnc2)cc1`, the AC50 is > 26 µM (inactive).

`CCOc1ccc(-n2c(=O)[nH]cc(C(=O)Nc3ccc(OC)c(OC)c3)c2=O)cc1`: the AC50 is > 26 µM (inactive).

For `CCCC[n+]1ccn(C2=C([O-])c3ccccc3C(=O)/C2=N\S(=O)(=O)c2ccc(Br)cc2)c1`, the AC50 is > 26 µM (inactive).
